Results reported in US4617336A, “Acylated calixarene stabilizers” (Ciba-Geigy Corporation, priority 1985, dated 1986).

Legend:
[1] = Angle to break of oven aged ABS plaques (ASTM D747); parameters: key: NB: No break; conditions: additive 0.225%
Method: This example illustrates the stabilization of acrylonitrile-butadiene-styrene (ABS) copolymer by the compounds of this invention. The testing procedure is as follows:
The antioxidant is dissolved in toluene and emulsified in water using Triton X-100 (Rohm & Haas) as a surfactant. The resultant emulsion is mixed well with ABS copolymer containing 40% butadiene (rubber). Steam coagulation of the emulsion/latex mixture yields 40% rubber stabilized ABS crumbs which are then dried at 80° C. for 30 minutes in a fluidized bed drier. The resultant crumbs are combined with styrene-acrylonitrile pellets on a two roll mill for six minutes. The resultant 15% rubber containing ABS milled sheet is compression molded at 400° F. into 60 mil plaques which are die cut into 1"×3" specimens. The sample plaques are then oven aged at 150° C. and the angle to break is monitored (ASTM D747). This consists of applying a set load through an angle with one stationary point and one moveable point, flexing the sample. The angle is monitored for several aging periods until the specimen breaks.

[2] = Oven ageing of stabilized polypropylene plaques (25 mil) at 150° C., oxidative stability
Method: Unstabilized polypropylene powder (Hercules Profax 6501) is thoroughly blended with the indicated amount of additive. The blended materials are then milled on a two roll mill at 182° C. for 5 minutes, after which time the stabilized polypropylene is sheeted from the mill and allowed to cool. The milled polypropylene is then cut into pieces and compression molded on a hydraulic press at 220° C. and 175 psi (1.2×10^6 Pa) into 25 mil thick plaques. The plaques are then exposed to air in a force draft oven maintained at 150° C. The plaques are considered to have failed on showing the first signs of decomposition (e.g. cracking or brown edges).

[3] = FS/BL (fluorescent sunlight/black light) exposure of polypropylene films (5 mil); conditions: failure = 0.5 carbonyl absorbance
Description: The samples are exposed in a fluorescent sunlight/black light chamber until failure. Failure is taken as the hours required to reach 0.5 carbonyl absorbance by infrared spectroscopy on the exposed films.

[4] = Solubility in hydrocarbon solvents; assay type: physicochemical; conditions: 24° to 25° C.
Method: This example provides solubility data for the instant stabilizers in two hydrocarbon solvents. The indicated stabilizer is dissolved in the minimal amount of solvent at 24° to 25° C. The value range reported is percent by weight of additive in total weight of solution.

[5] = Oxidation stability of polypropylene stretched tapes (2 mil) in forced draft oven at 115° C.; conditions: additive 0.2%
Method: The oxidation stability of milled polypropylene samples (prepared as in Examples 9 and 10), containing the indicated stabilizers, is measured on stretched tapes of 2 mil thickness on exposure to air in a forced draft oven at 115° C.

[6] = additive 0.2%, no co-stabilizer

Substance: Para-[2(carbooctadecyloxy)ethyl]hydroxycalix[n]arene [Example 4]
- Angle to Break (Oven Aged Samples) ([1]; 0 Min at 150° C.): NB
- Angle to Break (Oven Aged Samples) ([1]; 30 Min at 150° C.): NB
- Angle to Break (Oven Aged Samples) ([1]; 45 Min at 150° C.): NB
- Angle to Break (Oven Aged Samples) ([1]; 60 Min at 150° C.): NB
- Angle to Break (Oven Aged Samples) ([1]; 120 Min at 150° C.): 55
- Oxidative Stability Time to Failure ([2]; additive 0.1% with 0.3% DLTDP): 340 h
- Oxidative Stability Time to Failure ([2]; additive 0.3%, no co-stabilizer): 150 h
- FS/BL Test Results (Hours to Failure) ([3]; additive 0.3% by weight): 240 h

Substance: Para-[2-(carbododecyloxy)ethyl]hydroxycalix[n]arene [Example 3]
- wt/wt % Solubility in Toluene [4]: > 50 wt/wt %
- Oxidative Stability Time to Failure ([2]; additive 0.1% with 0.3% DLTDP): 420 h
- Oxidative Stability Time to Failure [2, 6]: 150 h
- FS/BL Test Results (Hours to Failure) ([3]; additive 0.2% by weight): 230 h

Substance: Para-carbobutoxy-hydroxycalix(n)arene [Example 8]
- Oxidative Stability Time to Failure ([2]; additive 0.1% with 0.3% DSTDP): 210 h
- Oxidative Stability Time to Failure [2, 6]: 20 h

Substance: Para-carbododecyloxyhydroxy-calix(n)arene [Example 5]
- Oxidative Stability Time to Failure ([2]; additive 0.1% with 0.3% DSTDP): 210 h
- Oxidative Stability Time to Failure [2, 6]: 30 h

Substance: Para-carbooctadecyloxy-hydroxycalix(n)arene [Example 7]
- Oxidative Stability Time to Failure [5]: 290 h
- Oxidative Stability Time to Failure ([2]; additive 0.1% with 0.3% DSTDP): 250 h
- Oxidative Stability Time to Failure [2, 6]: 30 h
